Assay results taken from PubChem BioAssay (NCI).
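Where inhibition never reached the appropriate level, the endpoint shown equals the highest concentration tested. Otherwise, values were interpolated linearly from a five-concentration, 48-hour dose response in 96-well plates. TGI: concentration producing complete growth inhibition.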

Columns and labels:
Test in all cases: NCI anticancer screen, dose series, 48 h
[1] = test system: SNB-19 CNS
[2] = test system: UACC-62 melanoma
[3] = test system: SNB-75 CNS
[4] = test system: U251 CNS
[5] = test system: SK-MEL-28 melanoma
[6] = test system: SF-268 CNS
[7] = test system: MOLT-4 leukemia
[8] = test system: HCC-2998 colon
[9] = test system: UO-31 renal
[10] = test system: HCT-15 colon
[11] = test system: DLD-1 colon
[12] = test system: COLO 205 colon
[13] = test system: M19-MEL melanoma
[14] = test system: HT29 colon
[15] = test system: OVCAR-4 ovarian
[16] = test system: SN12C renal
[17] = test system: MALME-3M melanoma
[18] = test system: ACHN renal
[19] = test system: UACC-257 melanoma
[20] = test system: DMS 273 small cell lung
[21] = test system: A549 NSCLC
[22] = test system: SW-620 colon
[23] = test system: DMS 114 small cell lung
[24] = test system: NCI-H460 lung
[25] = test system: SF-295 CNS
[26] = test system: HOP-18 NSCLC
[27] = test system: TK-10 renal
[28] = test system: K-562 leukemia
[29] = test system: OVCAR-8 ovarian
[30] = test system: RXF 393 renal
[31] = test system: HCT-116 colon
[32] = test system: SK-OV-3 ovarian
[33] = test system: HOP-92 NSCLC
[34] = test system: NCI-H522 lung
[35] = test system: HL-60(TB) leukemia
[36] = test system: OVCAR-5 ovarian
[37] = test system: KM20L2 colon
[38] = test system: OVCAR-3 ovarian
[39] = test system: IGROV1 ovarian
[40] = test system: XF 498 CNS
[41] = test system: RPMI-8226 leukemia
[42] = test system: LOX IMVI melanoma
[43] = test system: EKVX NSCLC
[44] = test system: M14 melanoma
[45] = test system: CCRF-CEM leukemia
[46] = test system: NCI-H226 lung
[47] = test system: SK-MEL-2 melanoma
[48] = test system: HOP-62 NSCLC
[49] = test system: LXFL 529 NSCLC
[50] = test system: NCI-H23 lung
[51] = test system: SNB-78 CNS
[52] = test system: SF-539 CNS
[53] = test system: 786-0 renal
[54] = test system: A498 renal
[55] = test system: KM12 colon
[56] = test system: SR leukemia
[57] = test system: CAKI-1 renal
[58] = test system: SK-MEL-5 melanoma
[59] = test system: RXF-631 renal

Cc1nn(C)c(=S)n(C)c1=O
TGI [1]: 41 µM
TGI [2]: > 100 µM
TGI [3]: 2.73 µM
TGI [4]: 30.1 µM
TGI [5]: > 100 µM
TGI [6]: > 100 µM
TGI [7]: > 100 µM
TGI [8]: > 100 µM
TGI [9]: 0.753 µM
TGI [10]: > 100 µM
TGI [11]: > 100 µM
TGI [12]: 15.4 µM
TGI [13]: > 100 µM
TGI [14]: > 100 µM
TGI [15]: > 100 µM
TGI [16]: 43.4 µM
TGI [17]: 37.2 µM
TGI [18]: 10.2 µM
TGI [19]: 11.2 µM
TGI [20]: 11 µM
TGI [21]: 23.8 µM
TGI [22]: > 100 µM
TGI [23]: 0.842 µM
TGI [24]: > 100 µM
TGI [25]: > 100 µM
TGI [26]: 4.89 µM
TGI [27]: 26.2 µM
TGI [28]: > 100 µM
TGI [29]: 27.3 µM
TGI [30]: 7.33 µM
TGI [31]: 10.8 µM
TGI [32]: 42.8 µM
TGI [33]: 1.42 µM
TGI [34]: 0.822 µM
TGI [35]: 6.47 µM
TGI [36]: 53.8 µM
TGI [37]: > 100 µM
TGI [38]: > 100 µM
TGI [39]: 53.2 µM
TGI [40]: 5.31 µM
TGI [41]: 14.8 µM
TGI [42]: > 100 µM
TGI [43]: 44.9 µM
TGI [44]: > 100 µM
TGI [45]: > 100 µM
TGI [46]: > 100 µM
TGI [47]: 34.8 µM
TGI [48]: 11.4 µM
TGI [49]: 54.6 µM
TGI [50]: 10.6 µM
TGI [51]: > 100 µM
TGI [52]: 21.9 µM
TGI [53]: 20.3 µM
TGI [54]: 37.7 µM

CCOC(=O)CN(Cc1ccccc1)Cc1c(C(=O)c2ccccc2)c2ccccc2n1C(=O)c1ccccc1
TGI [1]: > 100 µM
TGI [2]: > 100 µM
TGI [3]: > 100 µM
TGI [4]: > 100 µM
TGI [5]: > 100 µM
TGI [6]: > 100 µM
TGI [7]: > 100 µM
TGI [8]: > 100 µM
TGI [55]: > 100 µM
TGI [9]: > 100 µM
TGI [56]: > 100 µM
TGI [10]: > 100 µM
TGI [11]: > 100 µM
TGI [12]: > 100 µM
TGI [13]: > 100 µM
TGI [14]: > 100 µM
TGI [15]: > 100 µM
TGI [16]: > 100 µM
TGI [17]: > 100 µM
TGI [18]: > 100 µM
TGI [20]: > 100 µM
TGI [21]: > 100 µM
TGI [22]: > 100 µM
TGI [23]: > 100 µM
TGI [24]: > 100 µM
TGI [25]: > 100 µM
TGI [57]: > 100 µM
TGI [58]: > 100 µM
TGI [27]: > 100 µM
TGI [28]: > 100 µM
TGI [29]: > 100 µM
TGI [31]: > 100 µM
TGI [32]: > 100 µM
TGI [33]: > 100 µM
TGI [34]: > 100 µM
TGI [36]: > 100 µM
TGI [37]: > 100 µM
TGI [38]: > 100 µM
TGI [39]: > 100 µM
TGI [40]: > 100 µM
TGI [41]: > 100 µM
TGI [42]: > 100 µM
TGI [43]: > 100 µM
TGI [44]: > 100 µM
TGI [45]: > 100 µM
TGI [46]: > 100 µM
TGI [47]: > 100 µM
TGI [48]: > 100 µM
TGI [49]: > 100 µM
TGI [50]: > 100 µM
TGI [51]: > 100 µM
TGI [52]: > 100 µM
TGI [53]: > 100 µM
TGI [54]: > 100 µM

CN(Cc1ccccc1)C1(N(C)Cc2ccccc2)CC1
TGI [1]: > 100 µM
TGI [2]: > 100 µM
TGI [3]: > 100 µM
TGI [4]: > 100 µM
TGI [5]: > 100 µM
TGI [6]: > 100 µM
TGI [7]: > 100 µM
TGI [8]: > 100 µM
TGI [55]: > 100 µM
TGI [9]: > 100 µM
TGI [10]: > 100 µM
TGI [11]: > 100 µM
TGI [12]: > 100 µM
TGI [13]: > 100 µM
TGI [14]: > 100 µM
TGI [15]: > 100 µM
TGI [16]: > 100 µM
TGI [17]: > 100 µM
TGI [18]: > 100 µM
TGI [19]: > 100 µM
TGI [20]: > 100 µM
TGI [21]: > 100 µM
TGI [22]: > 100 µM
TGI [23]: > 100 µM
TGI [24]: > 100 µM
TGI [25]: > 100 µM
TGI [26]: > 100 µM
TGI [57]: > 100 µM
TGI [58]: > 100 µM
TGI [27]: > 100 µM
TGI [28]: > 100 µM
TGI [29]: > 100 µM
TGI [30]: > 100 µM
TGI [31]: > 100 µM
TGI [32]: > 100 µM
TGI [33]: > 100 µM
TGI [34]: > 100 µM
TGI [35]: > 100 µM
TGI [36]: > 100 µM
TGI [37]: > 100 µM
TGI [38]: > 100 µM
TGI [39]: > 100 µM
TGI [40]: > 100 µM
TGI [42]: > 100 µM
TGI [43]: > 100 µM
TGI [44]: > 100 µM
TGI [45]: > 100 µM
TGI [46]: > 100 µM
TGI [47]: > 100 µM
TGI [48]: > 100 µM
TGI [49]: > 100 µM
TGI [50]: > 100 µM
TGI [51]: > 100 µM
TGI [52]: > 100 µM
TGI [53]: > 100 µM
TGI [54]: > 100 µM

CCc1cccc(C(C)CC)c1NC(=O)CC1C(=O)Nc2ccccc2S1=O (stereo unspecified)
TGI [1]: > 100 µM
TGI [2]: > 100 µM
TGI [3]: 49.4 µM
TGI [4]: 48.5 µM
TGI [5]: 68.1 µM
TGI [6]: > 100 µM
TGI [7]: 69 µM
TGI [8]: > 100 µM
TGI [9]: > 100 µM
TGI [56]: 73.6 µM
TGI [10]: > 100 µM
TGI [11]: > 100 µM
TGI [13]: > 100 µM
TGI [14]: 55.1 µM
TGI [15]: 47.9 µM
TGI [16]: > 100 µM
TGI [17]: > 100 µM
TGI [18]: > 100 µM
TGI [19]: > 100 µM
TGI [20]: > 100 µM
TGI [59]: > 100 µM
TGI [21]: > 100 µM
TGI [22]: > 100 µM
TGI [23]: > 100 µM
TGI [24]: > 100 µM
TGI [25]: > 100 µM
TGI [57]: > 100 µM
TGI [58]: > 100 µM
TGI [27]: > 100 µM
TGI [28]: > 100 µM
TGI [29]: > 100 µM
TGI [30]: 46.1 µM
TGI [31]: > 100 µM
TGI [33]: 46.3 µM
TGI [35]: > 100 µM
TGI [36]: > 100 µM
TGI [37]: > 100 µM
TGI [38]: > 100 µM
TGI [39]: 78.6 µM
TGI [41]: > 100 µM
TGI [42]: 73.7 µM
TGI [43]: > 100 µM
TGI [44]: 55.8 µM
TGI [45]: 90.3 µM
TGI [46]: > 100 µM
TGI [47]: > 100 µM
TGI [49]: > 100 µM
TGI [50]: > 100 µM
TGI [51]: 92.9 µM
TGI [52]: 46.2 µM
TGI [53]: > 100 µM
TGI [54]: > 100 µM
